Data taken from ChEMBL document CHEMBL1287680, “C-11 diamino cryptolepine derivatives NSC748392, NSC748393, and NSC748394: anticancer profile and G-quadruplex stabilization” (Bioorg Med Chem Lett, 2010).

Assays:
Nucleic Acid = settings: Homo sapiens
Description: Binding affinity to human duplex DNA assessed as change in melting temperature by FRET-melting assay

SK-OV-3 = assay: cells; settings: Homo sapiens
Description: Anticancer activity against human SKOV3 cells

IGROV-1 = assay: cells; settings: Homo sapiens
Description: Anticancer activity against human IGROV1 cells

UACC-62 = assay: cells; settings: Homo sapiens
Description: Anticancer activity against human UACC62 cells

UACC-257 = assay: cells; settings: Homo sapiens
Description: Anticancer activity against human UACC257 cells

SK-MEL-5 = assay: cells; settings: Homo sapiens
Description: Anticancer activity against human SK-MEL-5 cells

Malme-3M = assay: cells; settings: Homo sapiens
Description: Anticancer activity against human MALME-3M cells

U-251 = assay: cells; settings: Homo sapiens
Description: Anticancer activity against human U251 cells

SNB-19 = assay: cells; settings: Homo sapiens
Description: Anticancer activity against human SNB19 cells

HT-29 = assay: cells; settings: Homo sapiens
Description: Anticancer activity against human HT-29 cells

HCT-15 = assay: cells; settings: Homo sapiens
Description: Anticancer activity against human HCT15 cells

HCT-116 = assay: cells; settings: Homo sapiens
Description: Anticancer activity against human HCT116 cells

NCI-H522 = assay: cells; settings: Homo sapiens
Description: Anticancer activity against human NCI-H522 cells

NCI-H460 = assay: cells; settings: Homo sapiens
Description: Anticancer activity against human NCI-H460 cells

NCI-H226 = assay: cells; settings: Homo sapiens
Description: Anticancer activity against human NCI-H226 cells

HOP-92 = assay: cells; settings: Homo sapiens
Description: Anticancer activity against human HOP92 cells

HOP-62 = assay: cells; settings: Homo sapiens
Description: Anticancer activity against human HOP62 cells

A549 = assay: cells; settings: Homo sapiens
Description: Anticancer activity against human A549 cells

cells [1] = settings: Homo sapiens
Description: Anticancer activity against human RPMI8266 cells

K562 = assay: cells; settings: Homo sapiens
Description: Anticancer activity against human K562 cells

HL-60(TB) = assay: cells; settings: Homo sapiens
Description: Anticancer activity against human HL-60(TB) cells

CCRF-CEM = assay: cells; settings: Homo sapiens
Description: Anticancer activity against human CCRF-CEM cells

MDA-MB-435 = assay: cells; settings: Homo sapiens
Description: Anticancer activity against human MDA-MB-435 cells

cells [2] = settings: Homo sapiens, Hs-578T
Description: Anticancer activity against human Hs 578T cells

MDA-MB-231 = assay: cells; settings: Homo sapiens
Description: Anticancer activity against human MDA-MB-231 cells

TK-10 = assay: cells; settings: Homo sapiens
Description: Anticancer activity against human TK10 cells

CAKI-1 = assay: cells; settings: Homo sapiens
Description: Anticancer activity against human Caki1 cells

ACHN = assay: cells; settings: Homo sapiens
Description: Anticancer activity against human ACHN cells

A498 = assay: cells; settings: Homo sapiens
Description: Anticancer activity against human A498 cells

Description for physchem: Dissociation constant, pKa of the compound by UV-visible spectroscopy

## C[n+]1c2ccccc2c(Nc2ccc(N3CCCCC3)cc2)c2[nH]c3ccccc3c21.[Cl-]
Nucleic Acid
  ΔTm: 1.2 °C
SK-OV-3; SK-OV-3, read-out: pGI50 (converted)
  GI50: 513 nM
SK-OV-3; SK-OV-3, read-out: pLC50 (converted)
  CC50: 4.27 µM
SK-OV-3; SK-OV-3, read-out: pTGI
  TGI: 1860 nM
IGROV-1; IGROV-1, read-out: pGI50 (converted)
  GI50: 229 nM
IGROV-1; IGROV-1, read-out: pLC50 (converted)
  CC50: 3.47 µM
IGROV-1; IGROV-1, read-out: pTGI
  TGI: 1170 nM
UACC-62; UACC-62, read-out: pGI50 (converted)
  GI50: 427 nM
UACC-62; UACC-62, read-out: pTGI
  TGI: 1910 nM
UACC-257; UACC-257, read-out: pGI50 (converted)
  GI50: 1230 nM
UACC-257; UACC-257, read-out: pTGI
  TGI: 2690 nM
SK-MEL-5; SK-MEL-5, read-out: pGI50 (converted)
  GI50: 229 nM
SK-MEL-5; SK-MEL-5, read-out: pLC50 (converted)
  CC50: 3.47 µM
SK-MEL-5; SK-MEL-5, read-out: pTGI
  TGI: 1200 nM
Malme-3M; read-out: pGI50 (converted)
  GI50: 417 nM
Malme-3M; read-out: pLC50 (converted)
  CC50: 4.57 µM
Malme-3M; read-out: pTGI
  TGI: 1700 nM
U-251; U-251, read-out: pGI50 (converted)
  GI50: 288 nM
U-251; U-251, read-out: pLC50 (converted)
  CC50: 3.63 µM
U-251; U-251, read-out: pTGI
  TGI: 1230 nM
SNB-19; SNB-19, read-out: pGI50 (converted)
  GI50: 427 nM
SNB-19; SNB-19, read-out: pLC50 (converted)
  CC50: 4.37 µM
SNB-19; SNB-19, read-out: pTGI
  TGI: 1780 nM
HT-29; HT-29, read-out: pGI50 (converted)
  GI50: 178 nM
HT-29; HT-29, read-out: pLC50 (converted)
  CC50: 2140 nM
HT-29; HT-29, read-out: pTGI
  TGI: 550 nM
HCT-15; HCT-15, read-out: pGI50 (converted)
  GI50: 170 nM
HCT-15; HCT-15, read-out: pLC50 (converted)
  CC50: 912 nM
HCT-15; HCT-15, read-out: pTGI
  TGI: 398 nM
HCT-116; HCT-116, read-out: pGI50 (converted)
  GI50: 132 nM
HCT-116; HCT-116, read-out: pLC50 (converted)
  CC50: 100 µM
HCT-116; HCT-116, read-out: pTGI
  TGI: 363 nM
NCI-H522; NCI-H522, read-out: pGI50 (converted)
  GI50: 741 nM
NCI-H522; NCI-H522, read-out: pTGI
  TGI: 2140 nM
NCI-H460; NCI-H460, read-out: pGI50 (converted)
  GI50: 145 nM
NCI-H460; NCI-H460, read-out: pLC50 (converted)
  CC50: 2290 nM
NCI-H460; NCI-H460, read-out: pTGI
  TGI: 468 nM
NCI-H226; NCI-H226, read-out: pGI50 (converted)
  GI50: 269 nM
NCI-H226; NCI-H226, read-out: pTGI
  TGI: 1860 nM
HOP-92; HOP-92, read-out: pGI50 (converted)
  GI50: 263 nM
HOP-92; HOP-92, read-out: pLC50 (converted)
  CC50: 5.13 µM
HOP-92; HOP-92, read-out: pTGI
  TGI: 1200 nM
HOP-62; HOP-62, read-out: pGI50 (converted)
  GI50: 741 nM
HOP-62; HOP-62, read-out: pLC50 (converted)
  CC50: 5.25 µM
HOP-62; HOP-62, read-out: pTGI
  TGI: 2190 nM
A549; A549, read-out: pGI50 (converted)
  GI50: 162 nM
A549; A549, read-out: pLC50 (converted)
  CC50: > 100 µM
A549; A549, read-out: pTGI
  TGI: 589 nM
Cells [1]; RPMI8266, read-out: pGI50 (converted)
  GI50: 158 nM
Cells [1]; RPMI8266, read-out: pLC50 (converted)
  CC50: 1000 nM
Cells [1]; RPMI8266, read-out: pTGI
  TGI: 398 nM
K562; K562, read-out: pLC50 (converted)
  CC50: > 100 µM
K562; K562, read-out: pTGI
  TGI: > 100 µM
HL-60(TB); HL-60, read-out: pGI50 (converted)
  GI50: 617 nM
HL-60(TB); HL-60, read-out: pLC50 (converted)
  CC50: > 100 µM
CCRF-CEM; read-out: pGI50 (converted)
  GI50: 162 nM
CCRF-CEM; read-out: pLC50 (converted)
  CC50: 2000 nM
CCRF-CEM; read-out: pTGI
  TGI: 427 nM
MDA-MB-435; MDA-MB-435, read-out: pGI50 (converted)
  GI50: 447 nM
MDA-MB-435; MDA-MB-435, read-out: pLC50 (converted)
  CC50: 4.9 µM
MDA-MB-435; MDA-MB-435, read-out: pTGI
  TGI: 1660 nM
Cells [2]; read-out: pGI50 (converted)
  GI50: 275 nM
Cells [2]; read-out: pTGI
  TGI: 1000 nM
MDA-MB-231; MDA-MB-231, read-out: pGI50 (converted)
  GI50: 490 nM
MDA-MB-231; MDA-MB-231, read-out: pLC50 (converted)
  CC50: 6.03 µM
MDA-MB-231; MDA-MB-231, read-out: pTGI
  TGI: 2090 nM
TK-10; TK-10, read-out: pGI50 (converted)
  GI50: 1000 nM
TK-10; TK-10, read-out: pLC50 (converted)
  CC50: 5.62 µM
TK-10; TK-10, read-out: pTGI
  TGI: 2400 nM
CAKI-1; CAKI-1, read-out: pGI50 (converted)
  GI50: 234 nM
CAKI-1; CAKI-1, read-out: pLC50 (converted)
  CC50: 3.16 µM
CAKI-1; CAKI-1, read-out: pTGI
  TGI: 794 nM
ACHN; read-out: pGI50 (converted)
  GI50: 288 nM
ACHN; read-out: pLC50 (converted)
  CC50: 3.89 µM
ACHN; read-out: pTGI
  TGI: 1450 nM
A498; A498, read-out: pGI50 (converted)
  GI50: 178 nM
A498; A498, read-out: pLC50 (converted)
  CC50: 2140 nM
A498; A498, read-out: pTGI
  TGI: 537 nM
physchem
  pKa: 10
